pIC50: −log10 of the molar value.
Legend:
[1] = test system: rat pleurisy model of inflammation; assay: carrageenin-induced pleurisy model, exudate volume; format: in vivo; conditions: 10 mg/kg p.o. for two days at -1, 6, 24 and 45 hours relative to carrageenin injection, 48 hours after injection
5-lipoxygenase [2] = target: T1, 5-lipoxygenase (Cavia porcellus, UniProt A0A286X958); assay: inhibition of 5-HETE and LTB4 synthesis in A-23187-stimulated guinea pig polymorphonuclear leukocytes; format: cell-based; conditions: also printed as 1×10^-7 M, read-out: IC50, inhibition of the formation of 5-HETE and leukotriene B4 (LTB4)
T1 construct: A-23187-stimulated guinea pig polymorphonuclear leukocytes; endogenous in cells; host or cells: guinea pig polymorphonuclear leukocytes
T1 sequence (A0A286X958 1-674): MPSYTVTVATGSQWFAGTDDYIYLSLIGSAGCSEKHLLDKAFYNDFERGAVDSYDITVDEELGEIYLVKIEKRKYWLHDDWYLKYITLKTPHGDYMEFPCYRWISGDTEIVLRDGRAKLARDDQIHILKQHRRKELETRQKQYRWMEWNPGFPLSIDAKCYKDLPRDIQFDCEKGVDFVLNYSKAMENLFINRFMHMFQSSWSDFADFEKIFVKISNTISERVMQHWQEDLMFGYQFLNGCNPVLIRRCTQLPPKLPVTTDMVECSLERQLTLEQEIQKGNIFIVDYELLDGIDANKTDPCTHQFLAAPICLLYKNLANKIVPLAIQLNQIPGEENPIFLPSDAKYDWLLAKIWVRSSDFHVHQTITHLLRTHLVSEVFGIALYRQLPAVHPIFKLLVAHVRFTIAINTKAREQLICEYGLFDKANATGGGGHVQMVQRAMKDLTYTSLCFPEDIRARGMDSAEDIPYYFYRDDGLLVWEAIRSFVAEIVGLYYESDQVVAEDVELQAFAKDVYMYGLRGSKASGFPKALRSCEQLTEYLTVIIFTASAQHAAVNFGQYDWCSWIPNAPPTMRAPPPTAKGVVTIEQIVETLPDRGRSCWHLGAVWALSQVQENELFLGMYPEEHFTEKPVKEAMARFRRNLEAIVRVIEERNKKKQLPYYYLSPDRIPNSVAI
Experimental: 5-Lipoxygenase inhibition is determined e.g. by measuring the percent inhibition of the synthesis of 5-HETE [(5S)-5-hydroxy-6,8,11,14-eicosa-tetraenoic acid] and leukotriene B4 (LTB4, 5,12-dihydroxy-6,8,10,14-eicosatetraenoic acid) in A-23187-stimulated guinea pig polymorphonuclear leukocytes, essentially according to radiometric thin-layer chromatographic assays described by Walker and Dawson (J. Pharm. Pharmacol. 31: 778, 1979) and Jakschik and Lee (Nature 287: 51, 1980) used to measure the formation of 5-HETE and LTB4 -like products from ^14 C-arachidonic acid. IC50 values are determined graphically as the concentration of test compound at which the synthesis of 5-HETE and LTB4 -like products is reduced to 50% of their respective control values.
(§1) Illustrative of the invention, the compound of example 1a, (E)-3-(1-cycloheptyl-1H-pyrrol-3-yl)-N-hydroxy-N-methyl-2-propenamide, inhibits the formation of 5-HETE [(5S)-5-hydroxy-6,8,11,14-eicosatetraenoic acid] and leukotriene B4 (LTB4, 5,12-dihydroxy-6,8,10,14-eicosatetraenoic acid) in A-23187-stimulated guinea pig polymorphonuclear leukocytes, e.g. at an IC50 of about 0.1 micromolar (1×10^-7 M).

5-lipoxygenase [3] = assay: ex vivo inhibition of A-23187-stimulated LTB4 formation in whole blood after oral administration; conditions: dose of about 3 mg/kg p.o. to the dog
Experimental: Furthermore, the inhibition of 5-lipoxygenase is determined after oral or i.v. administration to rats or dogs by measuring ex vivo in whole blood the decrease of A-23187-stimulated LTB4 formation as compared to non-treated control animals.
as §1

## CN(O)C(=O)/C=C/c1ccn(C2CCCCCC2)c1 [example 1a, (E)-3-(1-cycloheptyl-1H-pyrrol-3-yl)-N-hydroxy-N-methyl-2-propenamide]
[1]
  inhibition of exudate volume: causes inhibition of exudate volume
5-lipoxygenase [2]
  pIC50: ~7.00
5-lipoxygenase [3]
  inhibition of LTB4 formation as determined ex vivo: 50%

Source: patent US4960787A, “Certain pyrrolyl-substituted hydroxamic acid derivatives” (Ciba-Geigy Corporation, priority 1989, dated 1990)
